Test results reported in PubChem BioAssay AID1259407 (Chemical Carcinogenesis Research Information System (CCRIS), 2018).
Activity calls are given as the source filed them. No rule for the calls is given here.

System: CCRIS mutagenicity, Ames/micronucleus/aberration tests
Experiment: CCRIS mutagenicity studies
[1] = Test System: AMES SALMONELLA TYPHIMURIUM, Strain/Indicator: TA98, Metabolic Activation: NONE, Method: PREINCUBATION
[2] = Test System: AMES SALMONELLA TYPHIMURIUM, Strain/Indicator: TA100, Metabolic Activation: NONE, Method: PREINCUBATION
[3] = Test System: AMES SALMONELLA TYPHIMURIUM, Strain/Indicator: TA1535, Metabolic Activation: NONE, Method: PREINCUBATION
[4] = Test System: AMES SALMONELLA TYPHIMURIUM, Strain/Indicator: TA1537, Metabolic Activation: NONE, Method: PREINCUBATION

SMILES: O=CCC=O
- mutagenic call (End Point: IN VITRO CHROMOSOMAL ABERRATIONS, Test System: CHO CELLS, Metabolic Activation: RAT, LIVER, S-9, AROCLOR 1254): inactive; negative
- mutagenic call (Test System: AMES SALMONELLA TYPHIMURIUM, Strain/Indicator: HISD3052, Metabolic Activation: NONE, Method: STANDARD PLATE): active; positive
- mutagenic call (Test System: AMES SALMONELLA TYPHIMURIUM, Strain/Indicator: TA94, Metabolic Activation: NONE, Method: STANDARD PLATE): inactive; negative
- mutagenic call (Test System: AMES SALMONELLA TYPHIMURIUM, Strain/Indicator: TA98, Metabolic Activation: HAMSTER, LIVER, S-9, AROCLOR 1254, Method: PREINCUBATION): inactive; negative
- mutagenic call [1]: inactive; negative
- mutagenic call (Test System: AMES SALMONELLA TYPHIMURIUM, Strain/Indicator: TA98, Metabolic Activation: RAT, LIVER, S-9, AROCLOR 1254, Method: PREINCUBATION): inactive; negative
- mutagenic call (Test System: AMES SALMONELLA TYPHIMURIUM, Strain/Indicator: TA100, Metabolic Activation: HAMSTER, LIVER, S-9, AROCLOR 1254, Method: PREINCUBATION): inactive; negative
- mutagenic call [2]: inactive; negative
- mutagenic call (Test System: AMES SALMONELLA TYPHIMURIUM, Strain/Indicator: TA100, Metabolic Activation: RAT, LIVER, S-9, AROCLOR 1254, Method: PREINCUBATION): inactive; negative
- mutagenic call (Test System: AMES SALMONELLA TYPHIMURIUM, Strain/Indicator: TA102, Metabolic Activation: NONE, Method: PREINCUBATION): active; positive
- mutagenic call (Test System: AMES SALMONELLA TYPHIMURIUM, Strain/Indicator: TA104, Metabolic Activation: NONE, Method: PREINCUBATION): active; positive
- mutagenic call (Test System: AMES SALMONELLA TYPHIMURIUM, Strain/Indicator: TA1535, Metabolic Activation: HAMSTER, LIVER, S-9, AROCLOR 1254, Method: PREINCUBATION): inactive; negative
- mutagenic call [3]: inactive; negative
- mutagenic call (Test System: AMES SALMONELLA TYPHIMURIUM, Strain/Indicator: TA1535, Metabolic Activation: RAT, LIVER, S-9, AROCLOR 1254, Method: PREINCUBATION): inactive; negative
- mutagenic call (Test System: AMES SALMONELLA TYPHIMURIUM, Strain/Indicator: TA1537, Metabolic Activation: HAMSTER, LIVER, S-9, AROCLOR 1254, Method: PREINCUBATION): inactive; negative
- mutagenic call [4]: inactive; negative
- mutagenic call (Test System: AMES SALMONELLA TYPHIMURIUM, Strain/Indicator: TA1537, Metabolic Activation: RAT, LIVER, S-9, AROCLOR 1254, Method: PREINCUBATION): inactive; negative
- mutagenic call (Test System: MOUSE LYMPHOMA, Strain/Indicator: L5178Y (TK+/TK-), Metabolic Activation: NONE, Method: SUSPENSION/PLATE): active; positive

SMILES: CC(CCl)OP(=O)(OC(C)CCl)OC(C)CCl (stereo not given)
- mutagenic call (Test System: AMES SALMONELLA TYPHIMURIUM, Strain/Indicator: TA97, Metabolic Activation: HAMSTER, LIVER, S-9, AROCLOR 1254 (10%), Method: PREINCUBATION): inactive; negative
- mutagenic call (Test System: AMES SALMONELLA TYPHIMURIUM, Strain/Indicator: TA97, Metabolic Activation: HAMSTER, LIVER, S-9, AROCLOR 1254 (30%), Method: PREINCUBATION): inactive; negative
- mutagenic call (Test System: AMES SALMONELLA TYPHIMURIUM, Strain/Indicator: TA97, Metabolic Activation: NONE, Method: PREINCUBATION): inactive; negative
- mutagenic call (Test System: AMES SALMONELLA TYPHIMURIUM, Strain/Indicator: TA97, Metabolic Activation: RAT, LIVER, S-9, AROCLOR 1254 (10%), Method: PREINCUBATION): inactive; negative
- mutagenic call (Test System: AMES SALMONELLA TYPHIMURIUM, Strain/Indicator: TA97, Metabolic Activation: RAT, LIVER, S-9, AROCLOR 1254 (30%), Method: PREINCUBATION): inactive; negative
- mutagenic call (Test System: AMES SALMONELLA TYPHIMURIUM, Strain/Indicator: TA98, Metabolic Activation: HAMSTER, LIVER, S-9, AROCLOR 1254 (10%), Method: PREINCUBATION): inactive; negative
- mutagenic call (Test System: AMES SALMONELLA TYPHIMURIUM, Strain/Indicator: TA98, Metabolic Activation: HAMSTER, LIVER, S-9, AROCLOR 1254 (30%), Method: PREINCUBATION): inactive; negative
- mutagenic call [1]: inactive; negative
- mutagenic call (Test System: AMES SALMONELLA TYPHIMURIUM, Strain/Indicator: TA98, Metabolic Activation: RAT, LIVER, S-9, AROCLOR 1254 (10%), Method: PREINCUBATION): inactive; negative
- mutagenic call (Test System: AMES SALMONELLA TYPHIMURIUM, Strain/Indicator: TA98, Metabolic Activation: RAT, LIVER, S-9, AROCLOR 1254 (30%), Method: PREINCUBATION): inactive; negative
- mutagenic call (Test System: AMES SALMONELLA TYPHIMURIUM, Strain/Indicator: TA100, Metabolic Activation: HAMSTER, LIVER, S-9, AROCLOR 1254 (10%), Method: PREINCUBATION): inactive; negative
- mutagenic call (Test System: AMES SALMONELLA TYPHIMURIUM, Strain/Indicator: TA100, Metabolic Activation: HAMSTER, LIVER, S-9, AROCLOR 1254 (30%), Method: PREINCUBATION): inactive; negative
- mutagenic call [2]: inactive; negative
- mutagenic call (Test System: AMES SALMONELLA TYPHIMURIUM, Strain/Indicator: TA100, Metabolic Activation: RAT, LIVER, S-9, AROCLOR 1254 (10%), Method: PREINCUBATION): inactive; negative
- mutagenic call (Test System: AMES SALMONELLA TYPHIMURIUM, Strain/Indicator: TA100, Metabolic Activation: RAT, LIVER, S-9, AROCLOR 1254 (30%), Method: PREINCUBATION): inactive; negative
- mutagenic call (Test System: AMES SALMONELLA TYPHIMURIUM, Strain/Indicator: TA1535, Metabolic Activation: HAMSTER, LIVER, S-9, AROCLOR 1254 (10%), Method: PREINCUBATION): inactive; negative
- mutagenic call (Test System: AMES SALMONELLA TYPHIMURIUM, Strain/Indicator: TA1535, Metabolic Activation: HAMSTER, LIVER, S-9, AROCLOR 1254 (30%), Method: PREINCUBATION): inactive; negative
- mutagenic call [3]: inactive; negative
- mutagenic call (Test System: AMES SALMONELLA TYPHIMURIUM, Strain/Indicator: TA1535, Metabolic Activation: RAT, LIVER, S-9, AROCLOR 1254 (5 OR 30%), Method: PREINCUBATION): inactive; negative
- mutagenic call (Test System: AMES SALMONELLA TYPHIMURIUM, Strain/Indicator: TA1535, Metabolic Activation: RAT, LIVER, S-9, AROCLOR 1254 (10%), Method: PREINCUBATION): inactive; negative
- mutagenic call (Test System: AMES SALMONELLA TYPHIMURIUM, Strain/Indicator: TA1537, Metabolic Activation: HAMSTER, LIVER, S-9, AROCLOR 1254 (30%), Method: PREINCUBATION): inactive; negative
- mutagenic call [4]: inactive; negative
- mutagenic call (Test System: AMES SALMONELLA TYPHIMURIUM, Strain/Indicator: TA1537, Metabolic Activation: RAT, LIVER, S-9, AROCLOR 1254 (30%), Method: PREINCUBATION): inactive; negative

SMILES: CC1(C)S[C@@H]2[C@H](NC(=O)Cc3ccccc3)C(=O)N2[C@H]1C(=O)O
- mutagenic call (Test System: AMES SALMONELLA TYPHIMURIUM, Strain/Indicator: TA98, Metabolic Activation: NONE, Method: STANDARD PLATE): inactive; negative
- mutagenic call (Test System: AMES SALMONELLA TYPHIMURIUM, Strain/Indicator: TA100, Metabolic Activation: NONE, Method: STANDARD PLATE): inactive; negative
- mutagenic call (Test System: AMES SALMONELLA TYPHIMURIUM, Strain/Indicator: TA1537, Metabolic Activation: NONE, Method: STANDARD PLATE): inactive; negative
- mutagenic call (Test System: E. COLI, Strain/Indicator: WP2 (HCR), Metabolic Activation: NONE, Method: STANDARD PLATE): inactive; negative
